Laboratory results: US9663478B2, “Benzotriazine oxides as drugs targeting Mycobacterium tuberculosis” (priority 2011, dated 2017)
≈ marks a conversion by molar mass, not a printed value. Like-named read-outs stand apart in the source and are kept apart here.

How the values were obtained:
[1] = test system: Mtb H37Rv; test: TB MIC - SRI, resazurin-based microplate assay; type: cell-based, Mycobacterium tuberculosis; conditions: Mycobacterium tuberculosis, H37RV
[2] = test system: Mtb H37Rv; test: TB MIC - ITR (UIC), Institute for Tuberculosis Research; type: cell-based, Mycobacterium tuberculosis; conditions: Tables P1, P2
[3] = test system: NRP Mtb H37Rv cells; test: Low-oxygen recovery assay (LORA) MIC; type: cell-based, Mycobacterium tuberculosis; conditions: Tables P1, P2; non-replicating M. tuberculosis
[4] = test system: Vero cells; conditions: African green monkey, 72 h
[5] = Tables P1-P3, read-out: TB MIC - SRI

| SMILES | MIC [1, 5] [µg/mL] | TB MIC - UIC [2] [µg/mL] | LORA MIC [3] [µg/mL] | VERO Tox-SRI [4] | MIC ([1]; read-out: Activity against H37Rv, Table P4) [µg/mL] | MIC ([1]; read-out: TB MIC - SRI, Tables P1-P3) [µg/mL] |
| --- | --- | --- | --- | --- | --- | --- |
| CCC(COC)Nc1n[n+]([O-])c2cc(F)ccc2[n+]1[O-] (stereo not shown) [SRI-012278] | 5 (≈ 17.7 µM) | 2 | 1.87 | 6.3 | – | – |
| CCC(CC)Nc1n[n+]([O-])c2cc(F)ccc2[n+]1[O-] [SRI-012279] | 1.25 (≈ 4.69 µM) | 0.49 | 0.71 | 4.4 | – | – |
| CC(C)CC(C)Nc1n[n+]([O-])c2cc(F)ccc2[n+]1[O-] (stereo not shown) [SRI-012281] | 1.25 (≈ 4.46 µM) | 0.55 | 0.4 | <2.5 | – | – |
| [O-][n+]1nc(NC2CCCCCC2)[n+]([O-])c2ccc(F)cc21 [SRI-012282] | 0.625 (≈ 2.14 µM) | 0.39 | 0.21 | <2.5 | – | – |
| CC(Nc1n[n+]([O-])c2cc(F)ccc2[n+]1[O-])C(C)(C)C (stereo not shown) [SRI-012283] | 1.25 (≈ 4.46 µM) | 0.5 | 0.42 | <2.5 | – | – |
| CCNc1n[n+]([O-])c2cc(F)ccc2[n+]1[O-] [SRI-012284] | 0.625 (≈ 2.79 µM) | 0.35 | 0.75 | 4.6 | – | – |
| CCNc1n[n+]([O-])c2cc3c(cc2[n+]1[O-])CCC3 [SRI-012286] | – | 0.95 | 0.83 | 36.0 | 1.25 (≈ 5.08 µM) | 1.25 (≈ 5.08 µM) |
| [O-][n+]1nc(NC2CC2)[n+]([O-])c2ccc(Cl)cc21 [SRI-012301] | 0.625 (≈ 2.47 µM) | 0.21 | 0.22 | 1.36 | – | – |
| [O-][n+]1nc(NC2CCC2)[n+]([O-])c2ccc(Cl)cc21 [SRI-012302] | 0.156 (≈ 0.585 µM) | < 0.125 | < 0.125 | 1.6 | – | – |
| [O-][n+]1nc(NC2CCCCC2)[n+]([O-])c2ccc(Cl)cc21 [SRI-012303] | 0.625 (≈ 2.12 µM) | 0.94 | 0.63 | 2.62 | – | – |
| CCC(COC)Nc1n[n+]([O-])c2cc(Cl)ccc2[n+]1[O-] (stereo not shown) [SRI-012304] | 1.25 (≈ 4.18 µM) | 1.46 | 0.78 | 2.6 | – | – |
| CCNc1n[n+]([O-])c2cc(Cl)ccc2[n+]1[O-] [SRI-012306] | 1.25 (≈ 5.19 µM) | < 0.125 | 0.41 | 2.65 | – | – |
